Source: patent US4939177A, “Use of avarol for the control of AIDS and ARC” (Merz + Co. GmbH & Co., priority 1986, dated 1990)
Read-outs that look alike come from different tables or passages of the source.

Assays:
[1] = assay type: in vivo, rat; details: for Percentage of Radioactivity in Blood: rat
lymphoma cell = details: previous studies; cited from earlier work
[2] = Organ distribution of tritium labelled avarol in rats; assay type: in vivo, rat; details: for Concentration of Avarol, Brain / Concentration of Avarol, Heart / Concentration of Avarol, Kidney / Concentration of Avarol, Liver / Concentration of Avarol, Skin / Concentration of Avarol, Spleen / Concentration of Avarol, Testes: rat, 24 hours
[3] = test system: Interferon gamma production by peripheral human lymphocytes; assay: Interferon-gamma production by human lymphocytes (buffy coat cells), EIA; assay type: cell-based
Procedure: It is therefore advantageous that an anti-AIDS chemotherapeutic agent is provided with the ability to induce gamma Interferon in T-lymphocytes. […] The experiments were performed in vitro, using peripheral human lymphocytes (buffy coat cells) in culture.
Buffy coat cells were prepared by centrifugation on Ficoll-Plaque gradient and washed two times. Subsequently the cells were divided and adjusted to a concentration of 5×1,000,000 cells/ml.
Levels of Interferon were defined by an Enzymeimmunoassay (EIA). Interferon gamma: 96 well flat bottom plates (Greiner, Neurtingen) were coated with a monoclonal antibody recognizing Interferon gamma. 200 μl of the supernatant sample were added per well together with Interferon gamma-peroxidase coupled (50 μl), consisting of the same antibody as used for coating. […] The enzymatic reaction is completed by a preparation containing hydrogen peroxide substrate. The reaction is stopped within 15 minutes by 100 μl of sulfuric acid per well. The amount of Interferon is defined by comparing the extinction of the test sample with a standard curve produced by known values of Interferon gamma.

HTLV-III p15 = HTLV-III p15 expression in H9-HTLV-III cells, immunofluorescence; assay type: cell-based; details: for Expression of p15 (in %): none = 100
Procedure: H9-cells (M. Popovic, M. G. Sarngadharan, E. Reed, R. C. Gallo, Science: 224, 1984, 497-500) were treated with Polybren® (hexadimethrinbromide available on the market; 2 μg/ml) for 30 minutes at 37° C., washed free of Polybren and infected with 2×10^8 HTLV-III virus particles (isolated from H9 cell cultures by the method of M. Popovic; see above) per 4×10^5 H9 cells. Some assays which were not treated with drugs were used as positive controls, while different concentrations of the compound to be tested (avarone or avarol and their derivatives) were added to the test samples. The HTLV-III reverse transcriptase activity of these cultures was analyzed in the manner described above.
The immunofluorescence assays were carried out on methanol:acetone (1:1)-fixed cells with the use of monoclonal antibodies (from the mouse) against HTLV-III p15 (core protein of MW=15,000) and p24 (core protein of MW=24,000). Both of these proteins are marker proteins which indicate the presence of virus particles in the cells. The HTLV-III Infected cells with or without drug treatment were fixed on toxoplasmosis slides. After fixation with methanol-acetone (1:1) for 30 minutes at room temperature, the slides were stored in sealed plastic containers at -20° C. until use. The monoclonal antibodies were added to the cells, incubated at room temperature in a moisture chamber for one hour and washed for two hours with PBS (phospate buffered saline) containing 0.25% Triton X-100. The cells were then treated for one hour with fluorescein (FITC) labeled goat anti-mouse IgG (Capell Labs.) and washed overnight with PBS buffer containing 0.25% Triton X-100. Fifty percent glycerin was added to the slides and the cell fluorescence was determined with a Zeiss fluorescence microscope.
When the target H9-cells were treated with the HTLV-III isolate and cultivated without the compounds to be tested, the H9-cells were infected and, as established by indirect immunofluorescence assay, there was expression of the p24 and p15 protein. After incubation of the H9-HTLV-III cells with the compounds to be tested, a practically complete protective effect was observed.

SMILES: CC1=CCC[C@H]2[C@](C)(Cc3cc(O)ccc3O)[C@@H](C)CC[C@]12C [Avarol, 2-[(1R)-1,2,3,4,4a,7,8,8aα-octahydro-1β,2β,4aβ,5-tetramethyl-1-naphthylmethyl]-1,4-benzenediol]
- Percentage of Radioactivity in Blood ([1]; i.v. 10 mg/kg, 1 hour, 100% = 10 minutes after injection): 96%
- Percentage of Radioactivity in Blood ([1]; i.v. 10 mg/kg, 6 hours, 100% = 10 minutes after injection): 88%
- Percentage of Radioactivity in Blood ([1]; i.v. 10 mg/kg, 12 hours, 100% = 10 minutes after injection): 72%
- Percentage of Radioactivity in Blood ([1]; i.v. 10 mg/kg, 24 hours, 100% = 10 minutes after injection): 43%
- Percentage of Radioactivity in Blood ([1]; i.v. 10 mg/kg, 48 hours, 100% = 10 minutes after injection): 26%
- Percentage of Radioactivity in Blood ([1]; i.v. 20 mg/kg, 1 hour, 100% = 10 minutes after injection): 92%
- Percentage of Radioactivity in Blood ([1]; i.v. 20 mg/kg, 12 hours, 100% = 10 minutes after injection): 75%
- Percentage of Radioactivity in Blood ([1]; i.v. 20 mg/kg, 24 hours, 100% = 10 minutes after injection): 39%
- Percentage of Radioactivity in Blood ([1]; i.v. 20 mg/kg, 48 hours, 100% = 10 minutes after injection): 21%
- Percentage of Radioactivity in Blood ([1]; in vivo, iv, 20 mg/kg): 83
- half-life ([1]; rats, i.v.): approximately 22 hours
- concentration inhibiting lymphoma cell growth by 50% (lymphoma cell): 0.3 to 0.4 µg/mL
- sensitivity of T-cell derived leukemia cells vs normal T- or B-lymphocytes (lymphoma cell): more sensitively inhibited
- Concentration of Avarol, Brain ([2]; i.v. 2 mg/kg): 0.45 microgram of Avarol per gram o
- Concentration of Avarol, Heart ([2]; i.v. 2 mg/kg): 0.7 microgram of Avarol per gram o
- Concentration of Avarol, Kidney ([2]; i.v. 2 mg/kg): 1.6 microgram of Avarol per gram o
- Concentration of Avarol, Liver ([2]; i.v. 2 mg/kg): 6.4 microgram of Avarol per gram o
- Concentration of Avarol, Skin ([2]; i.v. 2 mg/kg): 0.4 microgram of Avarol per gram o
- Concentration of Avarol, Spleen ([2]; i.v. 2 mg/kg): 1.7 microgram of Avarol per gram o
- Concentration of Avarol, Testes ([2]; i.v. 2 mg/kg): 0.48 microgram of Avarol per gram o
- Concentration of Avarol, Brain ([2]; i.v. 10 mg/kg): 0.58 microgram of Avarol per gram o
- Concentration of Avarol, Heart ([2]; i.v. 10 mg/kg): 0.9 microgram of Avarol per gram o
- Concentration of Avarol, Kidney ([2]; i.v. 10 mg/kg): 2.2 microgram of Avarol per gram o
- Concentration of Avarol, Liver ([2]; i.v. 10 mg/kg): 6.9 microgram of Avarol per gram o
- Concentration of Avarol, Skin ([2]; i.v. 10 mg/kg): 0.6 microgram of Avarol per gram o
- Concentration of Avarol, Spleen ([2]; i.v. 10 mg/kg): 1.9 microgram of Avarol per gram o
- Concentration of Avarol, Testes ([2]; i.v. 10 mg/kg): 0.63 microgram of Avarol per gram o
- Concentration of Avarol, Brain ([2]; i.v. 20 mg/kg): 0.64 microgram of Avarol per gram o
- Concentration of Avarol, Heart ([2]; i.v. 20 mg/kg): 0.9 microgram of Avarol per gram o
- Concentration of Avarol, Kidney ([2]; i.v. 20 mg/kg): 2.4 microgram of Avarol per gram o
- Concentration of Avarol, Liver ([2]; i.v. 20 mg/kg): 7.4 microgram of Avarol per gram o
- Concentration of Avarol, Skin ([2]; i.v. 20 mg/kg): 0.6 microgram of Avarol per gram o
- Concentration of Avarol, Spleen ([2]; i.v. 20 mg/kg): 2.2 microgram of Avarol per gram o
- Concentration of Avarol, Testes ([2]; i.v. 20 mg/kg): 0.67 microgram of Avarol per gram o
- blood-brain barrier penetration ([2]; rats, i.v.): penetrates the blood-brain barrier
- Titer of Interferon-gamma ([3]; 0.2 μg/ml, 0 hours, untreated 2): 4 Units/ml of supernatant
- Titer of Interferon-gamma ([3]; 0.2 μg/ml, 24 hours, untreated 5): 17 Units/ml of supernatant
- Titer of Interferon-gamma ([3]; 0.2 μg/ml, 48 hours, untreated 3): 24 Units/ml of supernatant
- Titer of Interferon-gamma ([3]; 0.2 μg/ml, 72 hours, untreated 7): 26 Units/ml of supernatant
- Titer of Interferon-gamma ([3]; 0.2 μg/ml, 96 hours, untreated 4): 21 Units/ml of supernatant
- Titer of Interferon-gamma ([3]; 0.5 μg/ml, 0 hours, untreated 2): 4 Units/ml of supernatant
- Titer of Interferon-gamma ([3]; 0.5 μg/ml, 24 hours, untreated 5): 23 Units/ml of supernatant
- Titer of Interferon-gamma ([3]; 0.5 μg/ml, 48 hours, untreated 3): 74 Units/ml of supernatant
- Titer of Interferon-gamma ([3]; 0.5 μg/ml, 72 hours, untreated 7): 89 Units/ml of supernatant
- Titer of Interferon-gamma ([3]; 0.5 μg/ml, 96 hours, untreated 4): 118 Units/ml of supernatant
- Titer of Interferon-gamma ([3]; 1.0 μg/ml, 0 hours, untreated 2): 3 Units/ml of supernatant
- Titer of Interferon-gamma ([3]; 1.0 μg/ml, 24 hours, untreated 5): 20 Units/ml of supernatant
- Titer of Interferon-gamma ([3]; 1.0 μg/ml, 48 hours, untreated 3): 52 Units/ml of supernatant
- Titer of Interferon-gamma ([3]; 1.0 μg/ml, 72 hours, untreated 7): 62 Units/ml of supernatant
- Titer of Interferon-gamma ([3]; 1.0 μg/ml, 96 hours, untreated 4): 73 Units/ml of supernatant
- optimal dose for Interferon gamma induction ([3]; in vitro): 0.5 µg/mL
- Expression of p15 (in %) (HTLV-III p15; 0.1 μg/ml): 37%
- Expression of p15 (in %) (HTLV-III p15; 1 μg/ml): 12%
- Expression of p15 (in %) (HTLV-III p15; 5 μg/ml): 12%
- expression of HTLV-III protein p15, in words (HTLV-III p15; H9-HTLV-III cells): significant reduction
